What was measured:
[1] = test system: TREM2; experiment: Immunomodulation assay: TREM2 (M2 marker) expression in LPS-treated N9 microglial cells (Western blot); format: cell-based, mouse; conditions: 100 ng/mL LPS, 6 h pretreatment + 24 h
Source text: Microglia, essential regulators of neuroinflammatory processes, can be polarized to two distinct activation states: M1 and M2. M1 microglia have proinflammatory, neurotoxic properties and are modeled in vitro through lipopolysaccharides (LPS) activation. Alternatively, M2 microglia are involved in anti-inflammatory processes, contributing to trophic support of neurons and neuroprotective functions. A marked microglial activation with high expression levels of proinflammatory genes is found in MS lesions.[23] Conversely, the neuroprotective effects of the MS drug glatiramer are mediated by activated M2 microglia.[24] To this end, we evaluated whether 1 and 2 modulate microglial shift from an M1 neurotoxic phenotype to an M2 neuroprotective one. […] After pretreatment for 6 h and administration for a further 24 h, the microglial phenotype was evaluated through Western blot analysis of the M1-iNOS (inducible Nitric Oxide Synthase) and M2-TREM2 (Triggering Receptor Expressed on Myeloid cells 2) markers (Figure 6). We also assessed nitrite production, due to iNOS induction, in the incubation media. […]
Nitrite accumulation in cell media was assayed by the Griess reaction. […] Absorbance was read at 540 nm using a plate reader after 15 min of incubation at room […]
After 24 hours, the viability was evaluated through the MTT assay. […]

[2] = test system: Olig2; experiment: Oli-Neu proliferation marker Olig2 expression (Western blot); format: cell-based, mouse; conditions: Oli-Neu cells, 5 μM, 48 h
Source text: OPC proliferation and migration to the CNS injury site as well as their differentiation are critical steps toward remyelination in MS. HDAC activity plays a crucial role in OPC proliferation/differentiation; therefore, HDAC modulation is widely considered a promising therapeutic target for MS.[30] […] Therefore, we tested the effect of our compounds on OPC proliferation and differentiation, through cell counting, measure of filaments, and analysis of proliferation/differentiation markers (Figure 7).
Oli-Neu cells were grown in SATO medium (DMEM medium, 2 mM glutamine, 10 μg/ml insulin, 5.5 μg/ml transferrin, 38.72 nM sodium selenite, 100 µM putrescine, 520 nM L-thyroxine (T4), 500 nM triiodo-L-thyronine (T3), 200 nM progesterone, 25 μg/ml of gentamycin) supplemented with 1% heat-inactivated horse serum (HS) in a humidified, 5% CO2 incubator at 37°C. Cell culture medium and all chemicals were from Sigma-Aldrich, except for insulin-transferrin-sodium selenite 100X supplement (Life Technologies Corporation). Cells were plated on 96 well plates, previously coated with 10 μg/mL poly-L-lysine (Sigma-Aldrich; 10 μg/ml) at the density of 2.5 x 10 4/0.2 mL medium/well and treated with increasing concentrations of the compounds (0.5, 1, 5 and 10 μM).
After 24 hours, the viability was evaluated through the MTT assay.
Oli-Neu cells proliferation and differentiation assay
48 hours, for cell counting and measure of filaments, 5 random images for each condition were acquired with an Eclipse TS100 (Nikon) microscope using a 10X objective. Cells number and filament length were measured with Fiji ImageJ2 software. After 48 hours for proliferation and 72 hours of treatment for differentiation analysis, cells were lysed in ice-cold lysis buffer (50 mM Tris-HCl pH 7.4, 1% SDS, 0.05% protease inhibitor cocktail; all from Sigma-Aldrich) and protein content was determined by using the Lowry method. […]

| SMILES | expression of TREM2 (M2 marker) [1] | expression of Olig2, marker of OPCs proliferation [2] |
| --- | --- | --- |
| CC/C=C\C/C=C\C/C=C\CCCCCCCC(=O)NCCNC(=O)C(CCC)CCC [compound 1] | unchanged expression | marked decrease |
| CC/C=C\C/C=C\C/C=C\CCCCCCCC(=O)NCCOC(=O)C(CCC)CCC [compound 2] | unchanged expression | marked decrease |

From article PMC7734798 (ACS Medicinal Chemistry Letters, 2020)
